# Laboratory results: patent EP1137645B1, “ALPHA-METHYLBENZYL-CONTAINING THIOUREA INHIBITORS OF HERPES VIRUSES CONTAINING A […] GROUP” (Wyeth, priority 1998, dated 2000)
# Like-named read-outs stand apart in the source and are kept apart here.
# How the values were obtained:
# [1] = tested on: HCMV recombinant mutant virus whose genome contains the prokaryotic beta-glucuronidase gene; test: microbe, parasite or virus in culture; type: cell-based, human cytomegalovirus; conditions: Human betaherpesvirus 5, Fibroblast
# Outline: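 Human foreskin fibroblasts infected with HCMV recombinant carrying beta-glucuronidase under a viral promoter (e.g. RV145) in presence of compound. At 96 h post-infection, lysates assayed for beta-glucuronidase by colorimetric or fluorogenic substrate as replication readout; IC50 estimated from varying compound amounts.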
# [2] = tested on: HSV- I; test: HSV antiviral (ELISA) assay; type: cell-based; conditions: read-out: IC50 (ug/ml) HSV
# Description: Vero cells (ATCC #CCL-81) are plated on 96-well tissue culture plates at 3.5x10^4 cells per 100µl tissue culture DMEM (Dulbecco's modified Eagle media) supplemented with 2% fetal bovine serum (FBS) in each well. After overnight incubation @ 37°C (in 5% CO2) and 30 minutes prior to infection with HSV- I (multiplicity of infection equal to 0.006), cells are either untreated, or treated with test compound (multiple concentrations) or reference standard drug control. After approximately 24 hours post-infection incubation @ 37°C (in 5% CO2), cells are fixed for ELISA assay. The primary antibody is murine anti-HSV glycoprotein D monoclonal primary antibody and the secondary antibody is goat anti-mouse IgG linked to β-galactosidase. Thus the extent of viral replication is determined by assessing β-galactosidase activity by quantifying the generation of the 4-methyl umbelliferone fluorescent cleavage product after addition of the methyl umbelliferyl-β-D-galactoside (Sigma #M1633) substrate on a microfluorimeter (365nm for excitation and 450nm for emission). Antiviral activity (IC50) of the test compound is determined by comparing the flourescence obtained in absence of compound to that obtained in the presence of compound.
# [3] = tested on: VZV strain Ellen; test: VZV antiviral (ELISA) assay; type: cell-based
# Outline: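 HFF cells infected with VZV Ellen at multiplicity below 0.1 overnight, then mixed infected/uninfected cells seeded with compound in DMEM/2% FBS and incubated three days at 37°C, 5% CO2.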
# [4] = read-out: IC50 ug/ml HCMV, HCMV, human foreskin fibroblasts
# [5] = Human alphaherpesvirus 3, HFF, read-out: % inhibition 10 ug/ml VZV
# [6] = Human alphaherpesvirus 3, HFF, read-out: IC50 (ug/ml) VZV
# [7] = Human alphaherpesvirus 3, HFF, read-out: IC50 (ug/ml) VZV, VZV strain Ellen, HFF cells, ELISA
SMILES,"IC50 [1, 4] [µg/mL]","IC50 ([2]; HSV- I, Vero cells, ELISA) [µg/mL]","inhibition at 10 µg/mL [3, 5] [%]","IC50 [3, 6] [µg/mL]",IC50 ([1]; read-out: IC50 ug/ml HCMV) [µg/mL],"inhibition at 10 µg/mL ([3]; Human alphaherpesvirus 3, read-out: % inhibition 10 ug/ml VZV, 10 ug/ml, VZV strain Ellen, HFF cells, ELISA) [%]","IC50 ([3]; Human alphaherpesvirus 3, VZV strain Ellen, HFF cells, ELISA, read-out: IC50 (ug/ml) VZV) [µg/mL]",IC50 ([2]; Vero) [µg/mL],"IC50 [3, 7] [µg/mL]"
"COc1cc(OC)c(NC(=S)Nc2ccc(NC(=O)c3ccccc3O)cc2)cc1Cl [Example 139, N-{4-[3-(5-Chloro-2,4-dimethoxy-phenyl)-thioureido]-phenyl}-2-hydroxy-benzamide]",6,6,95,4,,,,,
"COc1cc(OC)c(NC(=S)Nc2ccc(NC(=O)c3c(F)cccc3F)cc2)cc1Cl [Example 140, N-{4-[3-(5-Chloro-2,4-dimethoxy-phenyl)-thioureido]-phenyl}-2,6-difluoro-benzamide]",4,0.15,65,10,,,,,
"COc1cc(OC)c(NC(=S)Nc2ccc(NC(=O)c3ccccc3Cl)cc2)cc1Cl [Example 141, 2-Chloro-N-{4-[3-(5-chloro-2,4-dimethoxy-phenyl)-thioureido]-phenyl}-benzamide]",6,0.25,40,> 10,,,,,
"COc1cc(OC)c(NC(=S)Nc2ccc(NC(=O)c3ccccc3Br)cc2)cc1Cl [Example 142, 2-Bromo-N-{4-[3-(5-chloro-2,4-dimethoxy-phenyl)-thioureido]-phenyl}-benzamide]",,0.4,,,10,51,> 15,,
"COc1cc(OC)c(NC(=S)Nc2ccc(NC(=O)c3ccccc3[N+](=O)[O-])cc2)cc1Cl [Example 143, N-{4-[3-(5-Chloro-2,4-dimethoxy-phenyl)-thioureido]-phenyl}-2-nitro-benzamide]",> 10,1,68,> 15,,,,,
"COc1cc(OC)c(NC(=S)Nc2ccc(NC(=O)c3ccc4ccccc4c3)cc2)cc1Cl [Example 156, Naphthalene-2-carboxylic acid {4-[3-(5-chloro-2,4-dimethoxy-phenyl)-thioureido]-phenyl}-amide]",10,2,17,> 10,,,,,
"COc1cc(OC)c(NC(=S)Nc2ccc(NC(=O)c3cccc4ccccc34)cc2)cc1Cl [Example 157, Naphthalene-1-carboxylic acid {4-[3-(5-chloro-2,4-dimethoxy-phenyl)-thioureido]-phenyl}-amide]",8,0.9,32,> 10,,,,,
"CCOC(=O)Nc1cccc(C(=O)Nc2ccc(NC(=S)Nc3cc(Cl)c(OC)cc3OC)cc2)c1 [Example 180, (3-{4-[3-(5-Chloro-2,4-dimethoxy-phenyl)-thioureido]-phenylcarbamoyl}-phenyl)-carbamic acid ethyl ester]",1.5,,36,,,,,1.3,> 10
"COc1cc(OC)c(NC(=S)Nc2ccc(NC(=O)c3ccccc3N)cc2)cc1Cl [Example 181, 2-Amino-N-{4-[3-(5-chloro-2,4-dimethoxy-phenyl)-thioureido]-phenyl}-benzamide]",> 10,1.5,60,> 10,,,,,
"COc1cc(OC)c(NC(=S)Nc2ccc(NC(=O)c3ccccc3-c3ccccc3)cc2)cc1Cl [Example 182, Biphenyl-2-carboxylic acid {4-[3-(5-chloro-2,4-dimethoxy-phenyl)-thioureido]-phenyl}-amide]",10,,32,,,,,10,> 10
"COc1cc(OC)c(NC(=S)Nc2ccc(NC(=O)c3ccccc3C(=O)O)cc2)cc1Cl [Example 184, N-{4-[3-(5-Chloro-2,4-dimethoxy-phenyl)-thioureido]-phenyl}-phthalamic acid]",> 50,,,,,,,> 50,> 10
"COc1cc(OC)c(NC(=S)Nc2ccc(NC(=O)c3ccccc3CO)cc2)cc1Cl [Example 185, N-{4-[3-(5-Chloro-2,4-dimethoxy-phenyl)-thioureido]-phenyl}-2-hydroxy-methyl-benzamide]",10,3,32,> 10,,,,,
"COc1cc(OC)c(NC(=S)Nc2ccc(NC(=O)c3cccc(F)c3F)cc2)cc1Cl [Example 186, N-{4-[3-(5-Chloro-2,4-dimethoxy-phenyl)-thioureido]-phenyl}-2,3-difluoro-benzamide]",> 10,0.2,52,> 10,,,,,
"COc1cc(OC)c(NC(=S)Nc2ccc(NC(=O)c3cc(F)ccc3F)cc2)cc1Cl [Example 187, N-{4-[3-(5-Chloro-2,4-dimethoxy-phenyl)-thioureido]-phenyl}-2,5-difluoro-benzamide]",> 10,0.2,53,> 10,,,,,
"COc1cc(OC)c(NC(=S)Nc2ccc(NC(=O)c3ccc(F)cc3F)cc2)cc1Cl [Example 188, N-{4-[3-(5-Chloro-2,4-dimethoxy-phenyl)-thioureido]-phenyl}-2,4-difluoro-benzamide]",> 10,1.2,22,> 10,,,,,
"COc1cc(OC)c(NC(=S)Nc2ccc(NC(=O)c3ccccc3NC(C)=O)cc2)cc1Cl [Example 189, 2-Acetylamino-N-{4-[3-(5-chloro-2,4-dimethoxy-phenyl)-thioureido]-phenyl}-benzamide]",> 10,2.5,59,> 10,,,,,
"COc1cc(OC)c(NC(=S)Nc2ccc(NC(=O)c3ccccc3NS(C)(=O)=O)cc2)cc1Cl [Example 191, N-{4-[3-(5-Chloro-2,4-dimethoxy-phenyl)-thioureido]-phenyl}-2-methane-sulfonylamino-benzamide]",> 10,,22,,,,,8,> 10
"COc1cc(OC)c(NC(=S)Nc2ccc(NC(=O)c3ccc(F)c(F)c3F)cc2)cc1Cl [Example 192, N-{4-[3-(5-Chloro-2,4-dimethoxy-phenyl)-thioureido]-phenyl}-2,3,4-trifluoro-benzamide]",> 10,0.5,14,> 10,,,,,
"COc1cc(OC)c(NC(=S)Nc2ccc(NC(=O)c3c(F)c(F)c(F)c(F)c3F)cc2)cc1Cl [Example 193, N-{4-[3-(5-Chloro-2,4-dimethoxy-phenyl)-thioureido]-phenyl}-2,3,4,5,6-pentafluoro-benzamide]",> 10,1.5,106,3.8,,,,,
"COc1cc(OC)c(NC(=S)Nc2ccc(NC(=O)c3ccccc3SC)cc2)cc1Cl [Example 194, N-{4-[3-(5-Chloro-2,4-dimethoxy-phenyl)-thioureido]-phenyl}-2-methyl-sulfanyl-benzamide]",> 10,1.5,45,> 10,,,,,
"COC(=O)c1cccc(C(=O)Nc2ccc(NC(=S)Nc3cc(Cl)c(OC)cc3OC)cc2)c1 [Example 208, N-{4-[3-(5-Chloro-2,4-dimethoxy-phenyl)-thioureido]-phenyl}-isophthalamic acid methyl ester]",> 10,10,25,> 10,,,,,
